Results taken from patent US6615842B1, “Methods for removing nucleophilic toxins from tobacco smoke” (Cerami Consulting Corp., priority 1998, dated 2003).

Experiment: Removal of tar from tobacco smoke measured colorimetrically
Settings: 250 mg portions of compound as filter; smoke from one cigarette drawn through 3 ml water; read at 405 nm; compared with control cigarette
Method: The smoke from one cigarette was drawn through the filter material and then through 3 mls of distilled water using a water-pipe smoking device which was constructed from a 25 ml glass Erlenmeyer flask attached to a vacuum source with an air flow rate of approximately 35 ml/min. Three 100 microliter aliquots were removed from each flask, placed into ELISA plate wells and read in an ELISA plate reader at 405 nm. The percentage or tar removed is based on a comparison between the cigarette comprising the filter containing the test agent and an appropriate control cigarette.
The smoke from 1 of each type of filter cigarette was then drawn through 3 mls of distilled water using a water-pipe smoking device which was constructed from a small (25 ml) glass Erlenmeyer flask attached to a vacuum source with an air flow rate of approximately 35 ml/min. Three 100 microliter aliquots were removed from each flask, placed into ELISA plated wells and read in an ELISA plate reader at 405 nm.

Row | SMILES | % TAR REMOVAL
1 | CCCCCCCCCC=CCC1CC(=O)OC1=O (stereo not drawn) [2-Dodecen-1-ylsuccinic anhydride] | 98.2%
2 | CC1(C)CC(=O)CC(=O)C1 [(5,5-dimethyl-1,3-cyclohexanedione, 5,5-dimethyl-1,3-cyclohexanedione] | 26%
3 | CC(=O)O[C@H]1C(=O)OC(=O)[C@@H]1OC(C)=O [(+)-Diacetyl-1-tartaric anhydride] | 32.1%
4 | CC(C)(C)OC(=O)NCCCCCC(=O)ON1C(=O)CCC1=O [BOC-ε-aminocaproic acid-N-hydroxysuccinimide ester] | 74%
5 | O=C1OC(=O)C2C3C=CC(C12)C1C(=O)OC(=O)C31 (stereo not drawn) [Bicyclo(2,2,2)oct-7-ene-2,3,5,6-tetracarboxylic dianhydride] | 98.2%
6 | O=C1CN(CCN2CC(=O)OC(=O)C2)CC(=O)O1 [Ethylenediaminetetraacetic dianhydride] | 98.2%
7 | O=C1c2ccccc2C(=O)C1(O)C1(O)C(=O)c2ccccc2C1=O [Hydrindantin] | 95%
8 | C[C@H](NC(=O)OC(C)(C)C)C(=O)ON1C(=O)CCC1=O [N-α-t-BOC-L-alanine-N-hydroxysuccinimide ester] | 25%
9 | CC(C)(C)OC(=O)N[C@@H](CCC(=O)ON1C(=O)CCC1=O)C(=O)OCc1ccccc1 [N-α-t-BOC-L-glutamic-α-benzyl ester-γ-N-hydroxysuccinimide ester] | 96.7%
10 | O=C1c2ccccc2C(=O)C1(O)O [Ninhydrin] | 83%
11 | O=Cc1ccccc1C=O [O-phthaldialdehyde] | 84%
12 | O=CC(=O)c1ccccc1 [Phenylglyoxal] | 53%
